The text below walks through data of ChEMBL document CHEMBL4840355, “Antitumor and toxicity study of mitochondria-targeted triptolide derivatives using triphenylphosphine (TPP+) as a carrier” (Bioorg Med Chem, 2021).

The source made the active and inactive calls. No cut-off for these calls is given here.

A short description of series [1]: Cytotoxicity against human HBE cells assessed as inhibition of cell proliferation measured after 48 hrs by MTT assay. In kind it is cell-based.
In the next series the test system is PC-3. The experiment in a line: Cytotoxicity against human PC-3 cells assessed as inhibition of cell proliferation measured after 48 hrs by MTT assay. The format is functional, cell-based. Conditions: PC-3, 48 h.
Another series relates to HeLa. The experiment in a line: Cytotoxicity against human HeLa cells assessed as inhibition of cell proliferation measured after 48 hrs by MTT assay. The format is functional, cell-based.
For series [2], the system named is HepG2. Put plainly: Antitumor activity against human HepG2 cells xenografted in zebra fish AB assessed as tumor growth inhibition at 1 uM measured after 48 hrs by fluorescence microscopic analysis. In kind it is functional, cell-based.
For another series, the system named is L02. The experiment in a line: Cytotoxicity against human HL7702 cells assessed as inhibition of cell proliferation measured after 48 hrs by MTT assay. Conditions: L02, 48 h. In kind it is cell-based.
A further series relates to NCI-H1299. Put plainly: Cytotoxicity against human NCI-H1299 cells assessed as inhibition of cell proliferation measured after 48 hrs by MTT assay. In kind it is functional, cell-based. As to conditions: NCI-H1299, 48 h.
The next series has as its system MCF7. The experiment in a line: Cytotoxicity against human MCF7 cells assessed as inhibition of cell proliferation measured after 48 hrs by MTT assay. The format is functional, cell-based. As to conditions: MCF7, 48 h.
Series [3] can be described thus: Toxicity in zebrafish AB assessed as decrease in hatching rate at 0.25 to 2 uM measured at 72 hrs postfertilization. Details: species or system Danio rerio. Conditions: in vivo, dose 0.25-2 µM.
A further series relates to NCI-H1975. The experiment in a line: Cytotoxicity against human NCI-H1975 cells assessed as inhibition of cell proliferation measured after 48 hrs by MTT assay. In kind it is functional, cell-based. Conditions: NCI-H1975, 48 h.
Series [4] has as its system HepG2. Put plainly: Antitumor activity against human HepG2 cells xenografted in zebra fish AB assessed as tumor growth inhibition at 0.5 to 1 uM measured after 48 hrs by fluorescence microscopic analysis. The format is functional, cell-based. Conditions: dose 0.5-1 µM.
A further series deals with PANC-1. Put plainly: Cytotoxicity against human PANC-1 cells assessed as inhibition of cell proliferation measured after 48 hrs by MTT assay. Conditions: PANC-1, 48 h. The format is functional, cell-based.
Series [5] can be described thus: Cytotoxicity against human A549/DDP cells assessed as inhibition of cell proliferation measured after 48 hrs by MTT assay. The format is functional, cell-based.
The subject of series [6] is HepG2. The experiment in a line: Cytotoxicity against human HepG2 cells assessed as inhibition of cell proliferation measured after 48 hrs by MTT assay. In kind it is functional, cell-based. Conditions: HepG2, 48 h.
Series [7] can be described thus: Toxicity in zebrafish AB assessed as mortality at 0.05 to 2 uM measured at 72 hrs postfertilization. Details: species or system Danio rerio. As to conditions: in vivo, dose 0.05-2 µM.
Series [8] can be described thus: Toxicity in 12-month old zebrafish assessed as mortality at 1.6 uM. Details: species or system Danio rerio. As to conditions: in vivo.
The nature of series [9]: Toxicity in zebrafish AB assessed as pericardial edema at 1 uM. More on the design: species or system Danio rerio. As to conditions: in vivo.
Series [10] is described as follows: Toxicity in zebrafish AB assessed as increase in embryo malformation rate at 0.5 to 2 uM measured at 72 hrs postfertilization. More on the design: species or system Danio rerio. As to conditions: in vivo, dose 0.5-2 µM.
Series [11] is described as follows: Toxicity in zebrafish AB assessed as decrease in body length at 0.25 to 2 uM measured at 72 hrs postfertilization. Details: species or system Danio rerio. Conditions: in vivo, dose 0.25-2 µM.
Series [12] in a line: Hepatotoxicity in transgenic zebrafish Tg(1-fabp:EGFP) assessed as liver damage by measuring decrease in fluorescence intensity and area at 0.5 uM measured after 96 hrs. The format is toxicity, tissue-based, Danio rerio. As to conditions: in vivo.

For `CC(C)[C@]12O[C@H]1[C@@H]1O[C@]13[C@]1(O[C@H]1C[C@H]1C4=C(CC[C@@]13C)C(=O)OC4)[C@@H]2O` [TRIPTOLIDE], the half-maximal inhibitory concentration (IC50) in [1] turned out to be 30 nM; with PC-3 it was 21 nM; with HeLa, 43 nM; with L02, 21 nM; in the series on NCI-H1299 it was 49 nM; with MCF7, 22 nM. The IC50 was 19 nM with NCI-H1975, 56 nM in the series on PANC-1, greater than 10000 nM in series [5] and 33 nM in the series on HepG2 [6]. Also, the outcome in the series on HepG2 [2] and in the series on HepG2 [4] was Active. The Activity result in series [3] was “Toxic”; in [7], “Non-Toxic”; in series [9], “Toxic”; in [10] it was “Toxic”; in series [11], “Toxic”; in [12] it was “Toxic”. In series [8], the mortality at 1.6 µM was 100%.
